Test systems include SF-539 CNS; SN12C renal; HOP-62 NSCLC; IGROV1 ovarian; BT-549 breast; UACC-257 melanoma; SNB-19 CNS; HOP-92 NSCLC; CCRF-CEM leukemia; SK-MEL-2 melanoma; OVCAR-8 ovarian; KM12 colon; HCT-116 colon; 786-0 renal.
Holding throughout (experiment): NCI tumour cell line growth inhibition, 48 h

The structures appear in SMILES notation.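 Dose response: 5 concentrations. Exposure: 48 h. Format: 96-well plates. Endpoint: linear interpolation; highest concentration if not reached. TGI denotes the concentration required for complete inhibition of growth.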

Consider `COc1ccccc1/C=C/c1ccnc2ccccc12`, for which the TGI with SF-539 CNS is 27.8 µM; in the assay with SN12C renal, 37.3 µM; in the assay with HOP-62 NSCLC it was 29.6 µM; in the assay on IGROV1 ovarian, 19.9 µM; in the assay with BT-549 breast, 24.4 µM; with UACC-257 melanoma it was 29.5 µM. Also, the TGI in the assay with SNB-19 CNS was 28.2 µM; in the assay with HOP-92 NSCLC it was 26.2 µM; in the assay on CCRF-CEM leukemia, 34.8 µM; with SK-MEL-2 melanoma, 30.1 µM; in the assay with OVCAR-8 ovarian it was 30.2 µM; in the assay with KM12 colon, 25.3 µM. Further, the values for the TGI with HCT-116 colon and in the assay with 786-0 renal were 26.5 µM and 27.7 µM, respectively.

(Values after PubChem BioAssay (NCI).)
